Our source for the Mean increment/day values is patent US20030045515A1, “Combination medicament for treatment of neoplastic diseases” (priority 2001, published 2003).

What all share (type): in vivo, NMRI nu/nu female mice
Test [1] relates to NYH cells (small cell lung cancer). As to the kind of experiment: Tumour growth in nude mice inoculated with NYH cells. The conditions noted are these: NYH tumours, 14 days. As for the experimental part:
(§1) The experiments were conducted with NMRI nu/nu female mice (M&B, Ry, Denmark) kept under semi-sterile conditions. The mice were 6 weeks old on arrival, and they were allowed to acclimatise for approximately 3 weeks before the experiments were initiated. The bedding was autoclaved at 121° C. for 20 minutes, the food was sterilised by irradiation, and the drinking water was filtered through a 0.2 μm filter. All handling of the mice was done in laminar flow benches.
Each experiment employed 40-60 mice which were inoculated in both flanks and left for the tumours to develop. Following that, the mice were divided into groups, each containing 10 mice and thus 18-20 tumors, according to the size of the tumour, i.e. large, medium or small. Unless stated otherwise all doses have been given daily.
(§2) The tumours were measured using digital callipers before treatment start (=baseline), twice weekly for the duration of the study, and at the end of the study. Tumour area (A) was calculated as the product of the two measured perpendicular diameters; A=d1×d2. For mice with only one tumour, the area of this tumour was calculated and used in the statistical analysis. For mice with two tumours, the average of the two tumour areas was calculated and used in the statistical analysis.
For each animal, an individual curve of the tumour areas observed during the study was plotted against time. The trend was an increasing growth rate of the tumours. In order to ensure an approximate linear correspondence between tumour data and time, the observations were transformed by taking the square root of the tumour areas, corresponding to tumour size in one dimension. As a summary measure of the repeated measurements of tumour areas during the study (tumour growth rate), the estimated slope of the individual curves of the square root transformed curves was used [Matthews, Br. Med. J., 300, 230-235, 1990]. The slope should be interpreted as a measure of the tumour growth rate and was estimated using linear regression analysis by time on the observations during the study. Within each group, the mean of the tumour growth rate was calculated.
The NYH cell line originates from a patient with small cell lung cancer. The cell line was obtained from Rigshospitalet, Copenhagen, Denmark.
The mice were inoculated with 1×10^7 NYH cells in 0.2 ml in each flank, and the tumours were left to grow for approximately 4 days. The duration of the dosing was 14 days.

Test [2] deals with Colo 320 DM cells (human colon cancer). As to the kind of experiment: Tumour growth in nude mice inoculated with Colo 320 DM cells. The conditions noted are these: Colo 320 DM tumours, 21 days, control 0.55. As for the experimental part:
as §1
Each experiment employed 40-60 mice which were inoculated in both flanks and left for the tumours to develop. Following that, the mice were divided into groups, each containing 10 mice and thus 18-20 tumors, according to the size of the tumour, i.e. large, medium or small. […]
as §2
For each animal, an individual curve of the tumour areas observed during the study was plotted against time. […] Within each group, the mean of the tumour growth rate was calculated. […]

In test [3] the test system is HT 1080 cells (human fibrosarcoma). Nature of the test: Tumour growth in nude mice inoculated with HT 1080 cells. To be noted: HT 1080 tumours, 14 days. As for the experimental part:
The experiments were conducted with NMRI nu/nu female mice (M&B, Ry, Denmark) kept under semi-sterile conditions. The mice were 6 weeks old on arrival, and they were allowed to acclimatise for approximately 3 weeks before the experiments were initiated. The bedding was autoclaved at 121° C. for 20 minutes, the food was sterilised by irradiation, and the drinking water was filtered through a 0.2 μm filter. All handling of the mice was done in laminar flow benches. Each experiment employed 40-60 mice which were inoculated in both flanks and left for the tumours to develop. Following that, the mice were divided into groups, each containing 10 mice and thus 18-20 tumors, according to the size of the tumour, i.e. large, medium or small. Unless stated otherwise all doses have been given daily. The tumours were measured using digital callipers before treatment start (=baseline), twice weekly for the duration of the study, and at the end of the study. Tumour area (A) was calculated as the product of the two measured perpendicular diameters; […] For mice with only one tumour, the area of this tumour was calculated and used in the statistical analysis. For mice with two tumours, the average of the two tumour areas was calculated and used in the statistical analysis. For each animal, an individual curve of the tumour areas observed during the study was plotted against time. The trend was an increasing growth rate of the tumours. In order to ensure an approximate linear correspondence between tumour data and time, the observations were transformed by taking the square root of the tumour areas, corresponding to tumour size in one dimension. As a summary measure of the repeated measurements of tumour areas during the study (tumour growth rate), the estimated slope of the individual curves of the square root transformed curves was used [Matthews, Br. Med. […] The slope should be interpreted as a measure of the tumour growth rate and was estimated using linear regression analysis by time on the observations during the study. Within each group, the mean of the tumour growth rate was calculated. The HT 1080 cell line originates from a patient with human fibrosarcoma, and it was obtained from ATCC. The mice were inoculated with 2×10^6 HT 1080 cells in 0.2 ml in each flank, and the tumours were left to grow for approximately 4 days.

On to `N.N.[Cl][Pt][Cl]` [Cisplatin], for which, in test [1] (cisplatin 5 mg/kg i.p. once weekly, control 0.90), the Mean increment/day worked out at 0.32 mm/day.
In the case of `N#CNC(=Nc1ccncc1)NCCCCCCOc1ccc(Cl)cc1` [Compound A, N-cyano-N′-(6-(4-chlorophenoxy)hexyl)-N″(4-pyridyl)guanidine], the Mean increment/day in test [1] (compound A 15 mg/kg p.o. daily, cisplatin experiment, control 0.90) came to 0.02 mm/day; in test [1] (compound A 15 mg/kg p.o. daily, cyclophosphamide experiment, control 0.61), 0.26 mm/day; in test [1] (compound A 15 mg/kg p.o. daily, etoposide experiment, control 0.67), 0.34 mm/day; in test [2] (compound A 50 mg/kg p.o. daily), 0.22 mm/day; in test [3] (compound A 50 mg/kg p.o. daily, TNP-470 experiment, control 0.73), 0.14 mm/day; in test [3] (compound A 50 mg/kg p.o. daily, etoposide experiment, control 0.45) it was 0.21 mm/day. Also, the Mean increment/day in test [3] (compound A 50 mg/kg p.o. daily, paclitaxel experiment, control 0.67) is listed as 0.30 mm/day; in test [3] (compound A 50 mg/kg p.o. daily, seocalcitol experiment, control 0.98), 0.24 mm/day.
`O=P1(N(CCCl)CCCl)NCCCO1` (centres unmarked) [Cyclophosphamide] showed a Mean increment/day in test [1] (cyclophosphamide 7 mg/kg p.o. daily, control 0.61) of 0.40 mm/day.
Take `COc1cc([C@@H]2c3cc4c(cc3[C@@H](O[C@@H]3O[C@@H]5CO[C@@H](C)O[C@H]5[C@H](O)[C@H]3O)[C@H]3COC(=O)[C@H]23)OCO4)cc(OC)c1O` [Etoposide]: the Mean increment/day in test [1] (etoposide 10 mg/kg p.o. daily, control 0.67) is 0.41 mm/day; in test [3] (etoposide 10 mg/kg p.o. daily, control 0.45), -0.01 mm/day.
For `CC(=O)O[C@H]1C(=O)[C@@]2(C)[C@H]([C@H](OC(=O)c3ccccc3)[C@]3(O)C[C@H](OC(=O)[C@H](O)[C@@H](NC(=O)c4ccccc4)c4ccccc4)C(C)=C1C3(C)C)[C@]1(OC(C)=O)CO[C@@H]1C[C@@H]2O` [Paclitaxel], the Mean increment/day was 0.39 mm/day in test [3] (paclitaxel 1 mg/kg s.c. daily, control 0.67) and 0.15 mm/day in test [3] (paclitaxel 2 mg/kg s.c. daily, control 0.67).
With `C=C1/C(=C\C=C2/CCC[C@]3(C)[C@@H]([C@H](C)/C=C/C=C/C(O)(CC)CC)CC[C@@H]23)C[C@@H](O)C[C@@H]1O` [Seocalcitol], the Mean increment/day in test [3] (seocalcitol 2 μg/kg p.o. daily, control 0.98) turned out to be 0.95 mm/day.
On to `CO[C@@H]1[C@H](OC(=O)NC(=O)CCl)CC[C@]2(CO2)[C@H]1[C@@]1(C)O[C@@H]1CC=C(C)C` [TNP-470], for which the Mean increment/day turned out to be 0.29 mm/day in test [2] (TNP-470 9 mg/kg s.c. daily) and 0.51 mm/day in test [3] (TNP-470 9 mg/kg s.c. daily, control 0.73).
